Literature values in US12440459B2, “Norepinephrine compositions and methods therefor” (Nevakar Injectables Inc., priority 2017, dated 2025).

Settings: Int J Toxicol. 2002; 21 Suppl 2:19-94

## COc1ccc(O)c(C(C)(C)C)c1 [butylated hydroxyl anisole]
  renal and hepatic damage: some renal and hepatic damage
